“Also recorded” adds a separate entry of the source.
Assays:
[1] = tested on: normolipidemic male Syrian hamsters; assay: Study 2: serum lipids, atorvastatin twice daily with and without single s.c. 316P in normolipidemic hamsters; format: in vivo, Mesocricetus auratus
[2] = tested on: normolipidemic male Syrian hamsters; assay: Study 2: safety parameters, body weight, liver weight and liver lipids
Protocol: (§1) Male Syrian hamsters (strain RjHan: AURA in Study 1 and Bio™ F1B in Study 2), weighing between 90 and 100 g, were purchased from Janvier, Germany, and were allowed to acclimatize for a period of 7 days before entering the study.
(§2) The investigation was divided into 2 studies. […] For each study, body weight and food consumption (weight changes in chow) were measured once a week, starting 1 week before dosing. […] In Study 1, samples were taken on Days −6, 1, 7, 14, 21, and 28; in Study 2, samples were taken on Days −7, 0, 3, and 7. Serum was obtained after centrifugation using Serum-Gel® tubes (Sarstedt, Nümbrecht, Germany).
(§3) At the end of each study, animals were sacrificed in a nonfasted state and liver was immediately weighed and shock frozen on dry ice.
(§4) All data are expressed as means±standard error of the mean (SEM) and were tested for normality and variance homogeneity before analysis. […] In Study 1, the vehicle-treated control versus treatment-naive control group was analyzed separately using 2-way ANOVA followed by the Dunnett test. A P value of ≦0.05 was considered statistically significant. Food consumption and safety parameters (AST, ALT, AP, and CK) were descriptively evaluated.

[3] = tested on: normolipidemic male Syrian hamsters; settings: Study 1, single s.c. 1, 3, or 10 mg/kg, data not shown
[4] = tested on: hepatic low density lipoprotein receptor (LDLR) protein; assay: Study 2: hepatic LDLR levels by Western blot; format: in vivo, Mesocricetus auratus; settings: Study 2, Western blot; 316P 10 mg/kg, atorvastatin 2×20 mg/kg
[5] = Study 1: serum 316P levels by sandwich ELISA; format: in vivo, Mesocricetus auratus; settings: Study 1, 24-hour time point, 1, 3, and 10 mg/kg
[6] = tested on: normolipidemic male Syrian hamsters; assay: Study 1: serum lipids after single s.c. injection in normolipidemic hamsters; format: in vivo, Mesocricetus auratus; settings: for decrease in TC: Day 7
[7] = tested on: normolipidemic male Syrian hamsters; settings: in vivo, sc
Protocol: as §1, §2, §3, §4

[8] = tested on: humans; settings: human phase 1 study, interim analysis, single i.v. administration; cited from earlier work
[9] = tested on: PCSK9; settings: in hamsters; cited from earlier work
[10] = target: hPCSK9 (Homo sapiens, UniProt Q8NBP7); settings: cited from earlier work
hPCSK9, sequence (Q8NBP7 153-692): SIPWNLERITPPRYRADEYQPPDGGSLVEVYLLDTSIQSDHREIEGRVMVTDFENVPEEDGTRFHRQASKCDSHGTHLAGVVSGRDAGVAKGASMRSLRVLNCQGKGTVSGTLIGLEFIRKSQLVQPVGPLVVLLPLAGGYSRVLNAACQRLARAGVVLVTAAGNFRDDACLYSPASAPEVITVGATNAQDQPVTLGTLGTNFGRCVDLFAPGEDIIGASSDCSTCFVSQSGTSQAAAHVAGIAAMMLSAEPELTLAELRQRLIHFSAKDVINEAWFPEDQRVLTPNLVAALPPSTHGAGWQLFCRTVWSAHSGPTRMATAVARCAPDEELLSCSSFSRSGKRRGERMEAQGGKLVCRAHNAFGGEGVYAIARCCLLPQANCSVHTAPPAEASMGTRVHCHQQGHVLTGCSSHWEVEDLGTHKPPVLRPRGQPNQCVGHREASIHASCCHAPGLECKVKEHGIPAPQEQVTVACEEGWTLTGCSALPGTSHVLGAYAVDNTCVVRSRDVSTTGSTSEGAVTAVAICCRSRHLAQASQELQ

[11] = tested on: PCSK9-mediated down-regulation of LDL uptake via LDLR in HepG2 cells; settings: cited from earlier work
[12] = target: hPCSK9 D238 mutated (D238R) (Homo sapiens, UniProt Q8NBP7, D238R); settings: cited from earlier work
hPCSK9 D238 mutated (D238R), sequence (Q8NBP7 153-692 D238R): as the sequence (Q8NBP7 153-692) above, with D86R counted along it

[13] = tested on: human HepG2 or Huh7 cells; settings: cited from earlier work
[14] = tested on: dyslipidemic hamsters; settings: cited from earlier work
[15] = Study 2, atorvastatin alone 10 or 20 mg/kg p.o. twice daily, after 7 days
[16] = Study 2, 316P single s.c. 10 mg/kg alone, sustained until Day 7
[17] = D238 mutated vs unmutated hPCSK9

Compound: CC(C)c1c(C(=O)Nc2ccccc2)c(-c2ccccc2)c(-c2ccc(F)cc2)n1CC[C@@H](O)C[C@@H](O)CC(=O)O [atorvastatin]
- reduction in TG levels ([1]; Study 2, atorvastatin 2×20 mg/kg, after 7 days of treatment): 23%
- reduction of serum TG levels ([1]; Study 2, atorvastatin alone 10 mg/kg or 20 mg/kg p.o. twice daily, after 7 days): 23%
- effect on serum HDL-C [1, 15]: no significant effect
- effect on serum LDL-C [1, 15]: no significant effect
- effect on serum TC [1, 15]: no significant effect
- ALT levels ([2]; Study 2, atorvastatin 2×10 or 20 mg/kg): slight, clinically insignificant increase; also recorded: biologically relevant increase

Compound: 316P: fully human monoclonal anti-PCSK9 antibody comprising HCVR SEQ ID NO: 9 and LCVR SEQ ID NO: 10 [Antibody 316P]
- effects on safety parameters, relative liver weight, hepatic cholesterol, TG, phospholipid concentration [3]: no biologically relevant effects
- level of hepatic LDLR expression compared with the PBS control groups [4]: 149%
- level of hepatic LDLR protein versus PBS control [4]: 1.5 fold
- serum 316P concentration vs dose [5]: proportional to theoretical dosing levels
- reduction in HDL-C ([6]; Study 1, data not shown): statistically significant but less pronounced than the effect on LDL-C
- serum TG levels ([6]; Study 1, every dose throughout the study): remained relatively constant
- decrease in TC ([6]; Study 1, single s.c. 1 mg/kg): 9%
- maximal effect on LDL-C (reduction) ([6]; Study 1, single s.c. 1 mg/kg, after Day 1, vs PBS control): 17%
- decrease in TC ([6]; Study 1, single s.c. 3 mg/kg): 17%
- maximal effect on LDL-C (reduction) ([6]; Study 1, single s.c. 3 mg/kg, after Day 7, vs PBS control): 27%
- decrease in TC ([6]; Study 1, single s.c. 10 mg/kg): 28%
- maximal effect on LDL-C (reduction) ([6]; Study 1, single s.c. 10 mg/kg, after Day 7, vs PBS control): 59%
- duration of dose-dependent decrease in LDL-C (TC and LDL-C) ([6]; Study 1, single s.c. 1, 3, or 10 mg/kg): more than 2 weeks
- day on which LDL-C levels reach PBS control-treated levels (0% reduction) ([6]; Study 1, single s.c. injection): 28 days
- HDL-C levels ([6]; highest dose 10 mg/kg, data not shown): significant reduction
- effects on relative liver weight, hepatic cholesterol, TG or phospholipid concentration [7]: no clinically relevant effects
- LDL-C reduction [8]: exceeded 60%
- duration of LDL-C reduction [8]: 30 days
- binding affinity for PCSK9 [9]: high binding affinity
- binding affinity for PCSK9 ([10]; in humans): high binding affinity
- T1/2 ([10]; unmutated hPCSK9): ~37 min
- Kd ([10]; unmutated hPCSK9, read-out: KD (binding affinity)): ~0.001 µM
- reduction in HDL-C ([1]; Study 2, 316P 10 mg/kg (groups not specified), data not shown): statistically significant but less pronounced than the effect on LDL-C
- effect on serum LDL-C [1, 16]: potent effect
- effect on serum TC [1, 16]: potent effect
- effect on PCSK9-mediated down-regulation of LDL uptake via LDLR [11]: antagonizes
- decrease of T1/2 [12, 17]: > 30 fold
- reduction in binding affinity [12, 17]: > 400 fold
- T1/2 ([12]; D238 mutated): ~1 min
- Kd ([12]; D238 mutated, read-out: KD (binding affinity)): ~0.41 µM
- tolerability ([2]; Study 2): well tolerated

Compound: CC(C)c1nc(N(C)S(C)(=O)=O)nc(-c2ccc(F)cc2)c1/C=C/[C@@H](O)C[C@@H](O)CC(=O)O [rosuvastatin]
- effect on the level of HNF1 alpha [13]: no appreciable effect
- increase in LDLR mRNA and protein [13]: ≈ 2 fold
- increase in PCSK9 mRNA and protein [13]: ≈ 3 fold
- hepatic LDLR levels [14]: reduced
- serum LDL-C levels [14]: slightly increased

From US20140065649A1, “TEST SYSTEMS AND METHODS FOR IDENTIFYING AND CHARACTERISING LIPID LOWERING DRUGS” (Sanofi, priority 2011, published 2014)
